Results on two molecules are retold here after ChEMBL document CHEMBL1177794, “Broad spectrum alkynyl inhibitors of T315I Bcr-Abl” (Bioorg Med Chem Lett, 2010).

For assay [1], the target named is Mitogen-activated protein kinase kinase kinase 9 (Homo sapiens) (UniProt P80192). Description: Inhibition of MLK1 at 10 uM.
Assay [2] has as its target Tyrosine-protein kinase Srms (Homo sapiens) (UniProt Q9H3Y6). Nature of the assay: Inhibition of SRMS at 10 uM.
In assay [3] the target is Tyrosine-protein kinase ABL2 (Homo sapiens) (UniProt P42684). Nature of the assay: Inhibition of ABL2 at 10 uM. The settings on record: values are per cent of control.
Assay [4] has as its target Serine/threonine-protein kinase LATS2 (Homo sapiens) (UniProt Q9NRM7). Nature of the assay: Inhibition of LATS2 at 10 uM; values are per cent of control.
Assay [5] deals with Serine/threonine-protein kinase D2 (Homo sapiens) (UniProt Q9BZL6). Nature of the assay: Inhibition of PRKD2 at 10 uM.
In assay [6] the target is Ephrin type-B receptor 3 (Homo sapiens) (UniProt P54753). Description: Inhibition of EPHB3 at 10 uM. As to conditions: values are per cent of control.
Assay [7] addresses Calcium/calmodulin-dependent protein kinase type II subunit alpha (Homo sapiens) (UniProt Q9UQM7). Description: Inhibition of CAMK2A at 10 uM. The settings on record: values are per cent of control.
Assay [8] concerns the target Tyrosine-protein kinase JAK1 (Homo sapiens) (UniProt P23458). Description: Inhibition of JAK1 JH2 pseudokinase domain at 10 uM; values are per cent of control.
The target of assay [9] is Death-associated protein kinase 1 (Homo sapiens) (UniProt P53355). Nature of the assay: Inhibition of DAPK1 at 10 uM. As to conditions: values are per cent of control.
Assay [10] has as its target Death-associated protein kinase 3 (Homo sapiens) (UniProt O43293). Nature of the assay: Inhibition of DAPK3 at 10 uM. The settings on record: values are per cent of control.
The target in assay [11] is MAP/microtubule affinity-regulating kinase 3 (Homo sapiens) (UniProt P27448). Nature of the assay: Inhibition of MARK3 at 10 uM. The settings on record: values are per cent of control.
Assay [12] deals with Fibroblast growth factor receptor 3 (Homo sapiens) (UniProt P22607). Nature of the assay: Inhibition of FGFR3 at 10 uM. The settings on record: values are per cent of control.
Assay [13] has as its target Epidermal growth factor receptor (Homo sapiens) (UniProt P00533). Description: Inhibition of EGFR at 10 uM; values are per cent of control.
Assay [14] concerns the target Fibroblast growth factor receptor 1 (Homo sapiens) (UniProt P11362). Nature of the assay: Inhibition of FGFR1 at 10 uM. As to conditions: values are per cent of control.
Assay [15] has as its target Cyclin-dependent kinase 8 (Homo sapiens) (UniProt P49336). Nature of the assay: Inhibition of CDK8 at 10 uM; values are per cent of control.
The target in assay [16] is Serine/threonine-protein kinase mTOR (Homo sapiens) (UniProt P42345). Description: Inhibition of MTOR at 10 uM; values are per cent of control.
Assay [17] deals with Dual specificity mitogen-activated protein kinase kinase 4 (Homo sapiens) (UniProt P45985). Description: Inhibition of MEK4 at 10 uM. The settings on record: values are per cent of control.
Assay [18] has as its target Homeodomain-interacting protein kinase 4 (Homo sapiens) (UniProt Q8NE63). Description: Inhibition of HIPK4 at 10 uM. As to conditions: values are per cent of control.
Assay [19] has as its target Ankyrin repeat and protein kinase domain-containing protein 1 (Homo sapiens) (UniProt Q8NFD2). Nature of the assay: Inhibition of ANKK1 at 10 uM. The settings on record: values are per cent of control.
For assay [20], the target named is Phosphatidylinositol 4-phosphate 3-kinase C2 domain-containing subunit beta (Homo sapiens) (UniProt O00750). Description: Inhibition of PIK3C2B at 10 uM.
The target of assay [21] is Cyclin-dependent kinase 18 (Homo sapiens) (UniProt Q07002). Description: Inhibition of PCTK3 at 10 uM. As to conditions: values are per cent of control.
The target of assay [22] is Calcium/calmodulin-dependent protein kinase kinase 2 (Homo sapiens) (UniProt Q96RR4). Nature of the assay: Inhibition of CAMKK2 at 10 uM. The settings on record: values are per cent of control.
For assay [23], the target named is Proto-oncogene tyrosine-protein kinase ROS (Homo sapiens) (UniProt P08922). Description: Inhibition of ROS1 at 10 uM.
Assay [24] has as its target Serine/threonine-protein kinase Sgk3 (Homo sapiens) (UniProt Q96BR1). Description: Inhibition of SGK3 at 10 uM.

Sequence of Proto-oncogene tyrosine-protein kinase ROS (Homo sapiens) (P08922 whole entry): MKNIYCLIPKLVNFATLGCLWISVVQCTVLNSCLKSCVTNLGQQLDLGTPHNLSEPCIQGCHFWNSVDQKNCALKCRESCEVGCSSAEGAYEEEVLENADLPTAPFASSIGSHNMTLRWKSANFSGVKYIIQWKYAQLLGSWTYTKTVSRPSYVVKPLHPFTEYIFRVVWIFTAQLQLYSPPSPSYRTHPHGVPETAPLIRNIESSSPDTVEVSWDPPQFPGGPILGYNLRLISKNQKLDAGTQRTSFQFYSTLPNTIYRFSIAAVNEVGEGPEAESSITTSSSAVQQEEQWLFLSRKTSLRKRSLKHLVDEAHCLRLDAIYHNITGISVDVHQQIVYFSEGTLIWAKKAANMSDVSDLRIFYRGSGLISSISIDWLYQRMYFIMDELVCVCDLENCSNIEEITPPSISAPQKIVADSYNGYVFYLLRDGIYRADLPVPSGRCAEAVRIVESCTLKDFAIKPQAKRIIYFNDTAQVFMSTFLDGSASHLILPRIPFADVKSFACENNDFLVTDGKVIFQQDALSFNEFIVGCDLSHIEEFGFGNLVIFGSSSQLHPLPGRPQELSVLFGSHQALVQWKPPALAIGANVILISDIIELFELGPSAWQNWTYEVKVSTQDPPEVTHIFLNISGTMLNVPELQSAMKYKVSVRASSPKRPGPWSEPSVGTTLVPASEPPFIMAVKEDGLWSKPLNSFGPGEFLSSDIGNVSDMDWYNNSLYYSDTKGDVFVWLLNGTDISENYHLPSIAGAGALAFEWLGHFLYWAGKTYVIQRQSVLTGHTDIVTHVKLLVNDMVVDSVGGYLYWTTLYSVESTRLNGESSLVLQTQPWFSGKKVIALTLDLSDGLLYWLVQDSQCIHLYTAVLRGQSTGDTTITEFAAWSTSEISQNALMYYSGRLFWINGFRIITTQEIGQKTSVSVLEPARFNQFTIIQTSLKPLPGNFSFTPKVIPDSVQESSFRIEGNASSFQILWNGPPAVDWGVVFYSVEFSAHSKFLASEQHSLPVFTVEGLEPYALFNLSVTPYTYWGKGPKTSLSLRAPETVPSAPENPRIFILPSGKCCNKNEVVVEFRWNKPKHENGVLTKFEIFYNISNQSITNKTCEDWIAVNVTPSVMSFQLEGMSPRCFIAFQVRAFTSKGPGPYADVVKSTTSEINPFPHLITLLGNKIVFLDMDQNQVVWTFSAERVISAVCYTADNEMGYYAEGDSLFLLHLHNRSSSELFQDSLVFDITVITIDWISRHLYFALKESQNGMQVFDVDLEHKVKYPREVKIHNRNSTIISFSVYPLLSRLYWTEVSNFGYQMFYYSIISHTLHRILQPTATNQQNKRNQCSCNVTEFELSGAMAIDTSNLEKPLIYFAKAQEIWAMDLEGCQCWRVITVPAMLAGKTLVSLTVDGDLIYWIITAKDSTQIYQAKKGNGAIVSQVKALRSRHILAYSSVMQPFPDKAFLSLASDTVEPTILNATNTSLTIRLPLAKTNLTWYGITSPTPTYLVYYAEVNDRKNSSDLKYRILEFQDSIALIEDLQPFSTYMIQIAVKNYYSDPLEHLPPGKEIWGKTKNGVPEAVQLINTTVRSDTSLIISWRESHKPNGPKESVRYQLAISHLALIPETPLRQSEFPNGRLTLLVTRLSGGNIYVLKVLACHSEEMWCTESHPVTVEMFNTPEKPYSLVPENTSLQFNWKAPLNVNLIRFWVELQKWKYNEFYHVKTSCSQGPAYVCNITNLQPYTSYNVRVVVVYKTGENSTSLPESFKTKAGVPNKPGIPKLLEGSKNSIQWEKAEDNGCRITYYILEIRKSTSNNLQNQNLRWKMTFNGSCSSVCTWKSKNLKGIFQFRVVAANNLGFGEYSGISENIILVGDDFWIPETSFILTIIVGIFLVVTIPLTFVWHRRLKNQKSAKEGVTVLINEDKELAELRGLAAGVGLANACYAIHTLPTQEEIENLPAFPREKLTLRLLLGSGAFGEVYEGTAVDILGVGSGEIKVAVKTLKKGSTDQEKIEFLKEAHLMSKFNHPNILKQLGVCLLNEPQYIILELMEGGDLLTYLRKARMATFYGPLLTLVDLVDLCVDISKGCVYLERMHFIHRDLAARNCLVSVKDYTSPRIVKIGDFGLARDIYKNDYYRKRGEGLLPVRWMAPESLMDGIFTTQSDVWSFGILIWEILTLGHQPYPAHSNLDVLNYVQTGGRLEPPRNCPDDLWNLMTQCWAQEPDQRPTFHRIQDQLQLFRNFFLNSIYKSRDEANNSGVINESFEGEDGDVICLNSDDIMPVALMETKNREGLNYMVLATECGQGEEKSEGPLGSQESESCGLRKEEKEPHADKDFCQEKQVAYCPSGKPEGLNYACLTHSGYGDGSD
Sequence of Phosphatidylinositol 4-phosphate 3-kinase C2 domain-containing subunit beta (Homo sapiens) (O00750 whole entry, the tested form may be a part): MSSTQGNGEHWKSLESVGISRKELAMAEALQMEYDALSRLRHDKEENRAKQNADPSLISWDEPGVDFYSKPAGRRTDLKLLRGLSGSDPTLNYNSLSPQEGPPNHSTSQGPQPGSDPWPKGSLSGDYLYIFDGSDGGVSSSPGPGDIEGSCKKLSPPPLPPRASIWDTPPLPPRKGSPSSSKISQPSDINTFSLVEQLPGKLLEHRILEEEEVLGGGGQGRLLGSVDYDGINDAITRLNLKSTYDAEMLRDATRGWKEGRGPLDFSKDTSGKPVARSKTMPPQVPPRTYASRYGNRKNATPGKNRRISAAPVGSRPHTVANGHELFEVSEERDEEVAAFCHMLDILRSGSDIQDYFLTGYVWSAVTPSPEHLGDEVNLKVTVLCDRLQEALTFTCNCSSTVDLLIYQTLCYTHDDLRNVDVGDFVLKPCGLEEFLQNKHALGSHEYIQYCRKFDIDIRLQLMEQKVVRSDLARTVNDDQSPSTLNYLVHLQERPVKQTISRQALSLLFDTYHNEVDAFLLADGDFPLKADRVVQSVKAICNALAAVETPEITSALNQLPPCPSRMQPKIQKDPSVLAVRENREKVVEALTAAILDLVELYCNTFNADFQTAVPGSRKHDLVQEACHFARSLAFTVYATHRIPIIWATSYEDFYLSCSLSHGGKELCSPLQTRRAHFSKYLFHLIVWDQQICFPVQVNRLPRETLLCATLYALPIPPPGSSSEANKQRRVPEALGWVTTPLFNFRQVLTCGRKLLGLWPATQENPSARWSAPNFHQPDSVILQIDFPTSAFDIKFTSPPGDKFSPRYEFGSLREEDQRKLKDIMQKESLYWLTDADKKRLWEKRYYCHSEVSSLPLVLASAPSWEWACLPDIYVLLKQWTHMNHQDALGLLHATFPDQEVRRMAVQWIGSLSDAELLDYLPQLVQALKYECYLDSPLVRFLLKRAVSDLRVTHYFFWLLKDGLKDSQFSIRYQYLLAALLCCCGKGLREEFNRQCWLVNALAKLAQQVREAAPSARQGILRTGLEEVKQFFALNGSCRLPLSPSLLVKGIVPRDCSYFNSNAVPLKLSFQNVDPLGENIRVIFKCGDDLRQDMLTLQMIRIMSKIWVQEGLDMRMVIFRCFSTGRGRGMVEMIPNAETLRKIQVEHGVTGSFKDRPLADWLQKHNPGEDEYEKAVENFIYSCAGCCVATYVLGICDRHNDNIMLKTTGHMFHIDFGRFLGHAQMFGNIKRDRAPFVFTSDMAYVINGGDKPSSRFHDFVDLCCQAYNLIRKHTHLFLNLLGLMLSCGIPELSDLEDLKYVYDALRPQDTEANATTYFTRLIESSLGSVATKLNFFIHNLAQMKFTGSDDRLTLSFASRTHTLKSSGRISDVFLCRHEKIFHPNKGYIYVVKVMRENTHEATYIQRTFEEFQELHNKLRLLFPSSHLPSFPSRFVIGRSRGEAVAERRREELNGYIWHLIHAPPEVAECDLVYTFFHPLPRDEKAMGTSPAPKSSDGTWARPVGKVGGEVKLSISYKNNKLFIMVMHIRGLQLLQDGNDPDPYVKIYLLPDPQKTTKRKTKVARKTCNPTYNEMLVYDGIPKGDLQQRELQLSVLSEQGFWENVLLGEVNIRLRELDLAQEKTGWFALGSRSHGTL
Sequence of Fibroblast growth factor receptor 3 (Homo sapiens) (P22607 23-806 limits assumed): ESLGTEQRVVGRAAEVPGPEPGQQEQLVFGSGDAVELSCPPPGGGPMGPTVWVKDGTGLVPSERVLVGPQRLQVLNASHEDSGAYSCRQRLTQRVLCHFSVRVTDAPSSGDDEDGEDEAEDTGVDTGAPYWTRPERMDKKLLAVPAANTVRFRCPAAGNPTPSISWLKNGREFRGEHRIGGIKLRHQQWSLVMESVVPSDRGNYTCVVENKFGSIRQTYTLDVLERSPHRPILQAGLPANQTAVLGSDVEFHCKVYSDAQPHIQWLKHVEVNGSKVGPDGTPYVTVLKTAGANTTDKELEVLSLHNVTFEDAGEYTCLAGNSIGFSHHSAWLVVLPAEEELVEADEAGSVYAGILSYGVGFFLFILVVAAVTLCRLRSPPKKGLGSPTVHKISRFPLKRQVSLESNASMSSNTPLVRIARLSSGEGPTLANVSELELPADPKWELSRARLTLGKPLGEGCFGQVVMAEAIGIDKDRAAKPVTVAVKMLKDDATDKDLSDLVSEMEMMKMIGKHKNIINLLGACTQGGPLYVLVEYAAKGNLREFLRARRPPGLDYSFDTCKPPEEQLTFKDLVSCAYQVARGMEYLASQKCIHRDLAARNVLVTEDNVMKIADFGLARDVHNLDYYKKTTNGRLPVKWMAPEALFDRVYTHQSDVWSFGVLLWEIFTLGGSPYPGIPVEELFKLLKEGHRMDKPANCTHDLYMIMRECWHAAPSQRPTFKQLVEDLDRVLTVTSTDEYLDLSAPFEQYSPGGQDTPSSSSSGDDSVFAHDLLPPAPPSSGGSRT

Regarding `CCN1CCN(Cc2ccc(NC(=O)c3ccc(C)c(C#Cc4cnc5[nH]ccc5c4)c3)cc2C(F)(F)F)CC1`, the inhibition in [1] was found to be 1.7%; in [2], 0.2%; in assay [5] it was 13%; in assay [20] it was 100%; in assay [23], 34%; in assay [24], 11%. The residual binding, % of control in assay [3] is 0%; in [6], 2.7%; in assay [7], 100%; in [9] it was 94%; in assay [10], 96%; in assay [11] it was 42%. In addition, the residual binding, % of control worked out at 0.15% in [12]; 0.15% in assay [14]; 25% in assay [17]; 1.9% in assay [18]; 7.1% in assay [19]; 12% in [21]. The residual binding, % of control in assay [22] worked out at 27%. Further, the level, % of control in assay [4] was found to be 7%; in [8], 74%; in assay [13] it was 0.3%; in assay [15], 18%; in [16] it was 88%.
As to `CCN1CCN(Cc2ccc(NC(=O)c3ccc(C)c(C#Cc4cccnc4)c3)cc2C(F)(F)F)CC1`, the inhibition in assay [1] was 43%; in assay [2], 0%; in assay [5], 56%; in assay [20], 100%; in assay [23], 46%; in assay [24], 6.2%. Further, the residual binding, % of control worked out at 0.05% in [3]; 0.25% in [6]; 100% in assay [7]; 100% in assay [9]; 100% in assay [10]; 69% in [11]. Also, the residual binding, % of control is 0.3% in assay [12]; 0.25% in [14]; 43% in [17]; 2.2% in assay [18]; 8.2% in assay [19]; 6.2% in assay [21]. The residual binding, % of control in [22] came out at 7.8%. For the same molecule, the level, % of control was determined as 7.6% in assay [4]; 90% in assay [8]; 3% in assay [13]; 8.2% in [15]; 92% in assay [16].
